# In article PMC7329864, “Role of water in cyclooxygenase catalysis and design of anti-inflammatory agents targeting two sites of the enzyme” (Scientific Reports, 2020):
# Entries after “also recorded” stand apart in the source; their conditions may differ. Read-outs that look alike come from different tables or passages of the source.
# How the values were obtained:
# wt COX-2 = target: T1, wt COX-2 (Homo sapiens, UniProt P35354); assay: COX inhibitory enzyme immunoassay (COX-2); type: biochemical; settings: for IC50: enzyme immunoassay, screened at 10^–4–10^–8 M, average of 3 experiments, SD ± 0.5 µM; for SI (IC50(COX-1)/IC50 (COX-2): selectivity index COX-1/COX-2
# T1 construct: purchased Cayman Chemical Co. item no; 560131
# T1 sequence (P35354 18-604): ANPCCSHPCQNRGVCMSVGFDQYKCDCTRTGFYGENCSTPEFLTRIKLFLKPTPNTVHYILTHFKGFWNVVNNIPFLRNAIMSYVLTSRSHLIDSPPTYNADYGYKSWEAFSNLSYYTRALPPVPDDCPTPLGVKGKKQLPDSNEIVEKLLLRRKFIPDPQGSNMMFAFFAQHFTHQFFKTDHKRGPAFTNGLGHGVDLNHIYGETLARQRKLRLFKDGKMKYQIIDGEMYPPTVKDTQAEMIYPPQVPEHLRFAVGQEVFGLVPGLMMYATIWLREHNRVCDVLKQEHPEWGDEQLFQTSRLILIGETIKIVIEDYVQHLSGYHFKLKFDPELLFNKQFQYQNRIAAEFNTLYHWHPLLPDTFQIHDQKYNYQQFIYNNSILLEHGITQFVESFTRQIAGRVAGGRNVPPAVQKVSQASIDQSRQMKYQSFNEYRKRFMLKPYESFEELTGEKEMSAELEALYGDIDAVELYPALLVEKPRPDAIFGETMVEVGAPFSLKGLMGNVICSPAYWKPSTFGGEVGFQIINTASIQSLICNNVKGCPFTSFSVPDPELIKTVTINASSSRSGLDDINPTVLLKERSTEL
# Method: (§1) All the compounds of Fig. 9 were screened for COX-1/2 inhibitory activity in triplicate at 10^–4–10^–8 M concentration by performing enzyme immunoassays. The activity of the compounds was quantified in terms of amount of prostaglandins produced by the enzymes in the presence of different concentrations of the compound.
# (§2) For studying the COX-1, COX-2 inhibitory activities of the compounds, various reagents were prepared as per the protocol of the assays. The compounds were screened in triplicate at 10^–4–10^–8 M concentration using the procedure as described in the previous report.
# COX-1 = target: T2, COX-1 (Ovis aries, UniProt P05979); assay: COX inhibitory enzyme immunoassay (COX-1); type: biochemical
# T2 construct: purchased Cayman Chemical Co. item no; 560131
# T2 sequence (P05979 25-600): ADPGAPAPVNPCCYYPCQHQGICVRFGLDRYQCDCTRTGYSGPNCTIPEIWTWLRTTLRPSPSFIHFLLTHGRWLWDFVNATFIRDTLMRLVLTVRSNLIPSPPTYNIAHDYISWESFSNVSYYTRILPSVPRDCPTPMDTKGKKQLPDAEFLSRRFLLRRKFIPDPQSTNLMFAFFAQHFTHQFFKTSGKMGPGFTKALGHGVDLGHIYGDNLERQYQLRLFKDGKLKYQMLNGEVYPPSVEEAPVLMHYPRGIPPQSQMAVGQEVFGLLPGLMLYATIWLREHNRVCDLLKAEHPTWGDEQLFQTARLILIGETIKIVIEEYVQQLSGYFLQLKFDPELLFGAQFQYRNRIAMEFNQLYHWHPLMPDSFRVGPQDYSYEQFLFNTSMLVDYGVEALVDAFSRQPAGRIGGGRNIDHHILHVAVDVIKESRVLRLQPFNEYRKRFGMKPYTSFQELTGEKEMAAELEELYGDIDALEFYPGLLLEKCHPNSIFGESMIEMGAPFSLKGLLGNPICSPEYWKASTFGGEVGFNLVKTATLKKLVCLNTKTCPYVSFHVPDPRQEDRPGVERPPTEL
# Method: as §1, §2
# COX-2 = target: T3, COX-2 (Homo sapiens, UniProt P35354); assay: UV-Vis and fluorescence studies of interaction with COX-2; type: binding; settings: addition of COX-2 in Tris–HCl buffer pH 7.25 to solution of compound
# T3 sequence (P35354 18-604): T1 sequence (P35354 18-604)
# Text: In order to support in-silico experiments, the interactions of 1, 13d and 15d with COX-2 were checked with UV–vis and fluorescence spectral techniques. […] The appearance of level-off in the visible region (500–700 nm) was attributed to the Mie scattering due to the formation of aggregates. […] Corroborating the results of molecular modelling studies, the changes in the UV–Vis spectra as well as the fluorescence spectrum of the compound on addition of COX-2 probably occurred due to the HOMO–LUMO interactions between 1 and the enzyme (Figure S26). The linear Stern–Volmer plot of decrease in fluorescence intensity at 567 nm on increasing COX-2 concentration gave Stern–Volmer constant Ksv 3.30 × 10^4 M^-1. The detection limit of the compound for COX-2 was 0.02 nM (Figure S26C,D).
# In order to support in-silico experiments, the interactions of 1, 13d and 15d with COX-2 were checked with UV-vis and fluorescence spectral techniques. […] The appearance of level-off in the visible region (500-700 nm) was attributed to the Mie scattering due to the formation of aggregates. […] Corroborating the results of molecular modelling studies, the changes in the UV-Vis spectra as well as the fluorescence spectrum of the compound on addition of COX-2 probably occurred due to the HOMO-LUMO interactions between 1 and the enzyme (Figure S27). The linear Stern-Volmer plot of decrease in fluorescence intensity at 567 nm on increasing COX-2 concentration gave Stern-Volmer constant Ksv 3.30x10^4 M^-1. The detection limit of the compound for COX-2 was 0.02 nM (Figure 27C, 27D).
# [1] = enzyme immunoassay, screened at 10^–4–10^–8 M, average of 3 experiments, SD ± 0.5 µM, read-out: IC50 COX-1
smiles,measurement,setting,value
"O=C1NC(=O)C(=Cc2cn(CCCCCn3c4ccccc4c(=O)c4ccccc43)c3ccccc23)C(=O)N1 [Compound 2, 5-((1-(5-(9-Oxoacridin-10(9H)-yl)pentyl)-1H-indol-3-yl)methylene)pyrimidine-2,4,6(1H, 3H, 5H)-trione]",IC50,wt COX-2,0.1 µM
same,SI (IC50(COX-1)/IC50 (COX-2),wt COX-2,400
same,IC50,COX-1,40 µM
"O=C1NC(=O)C(=Cc2cn(CCCn3c4ccccc4c(=O)c4ccccc43)c3ccccc23)C(=O)N1 [Compound 3, 5-((1-(3-(9-Oxoacridin-10(9H)-yl)propyl)-1H-indol-3-yl)methylene)pyrimidine-2,4,6 (1H, 3H, 5H)-trione]",IC50,wt COX-2,10 µM
same,SI (IC50(COX-1)/IC50 (COX-2),wt COX-2,> 10
same,IC50,COX-1,> 100 µM
CN1C(=O)C(=Cc2cn(CCCCCCn3c4ccccc4c(=O)c4ccccc43)c3ccccc23)C(=O)N(C)C1=O [Compound 4],IC50,wt COX-2,2.15 µM
same,SI (IC50(COX-1)/IC50 (COX-2),wt COX-2,15
same,IC50,COX-1,33 µM
"Cn1cc(/C=C2\C(=O)N(CCCCCCn3c4ccccc4c(=O)c4ccccc43)c3ccccc32)c2ccccc21 [Compound 5, (Z)-10-(6-(3-((1-Methyl-1H-indol-3-yl)methylene)-2-oxoindolin-1-yl)hexyl)acridin-9(10H)-one]",IC50,wt COX-2,0.15 µM
same,SI (IC50(COX-1)/IC50 (COX-2),wt COX-2,350
same,IC50,COX-1; [1],53 µM
"Cn1cc(/C=C2\C(=O)N(CCCCCn3c4ccccc4c(=O)c4ccccc43)c3ccccc32)c2ccccc21 [Compound 6, (Z)-10-(5-(3-((1-Methyl-1H-indol-3-yl)methylene)-2-oxoindolin-1-yl)pentyl)acridin-9(10H)-one]",IC50,wt COX-2,0.35 µM
same,SI (IC50(COX-1)/IC50 (COX-2),wt COX-2,160
same,IC50,COX-1; [1],60 µM
"Cn1cc(/C=C2\C(=O)N(CCCn3c4ccccc4c(=O)c4ccccc43)c3ccccc32)c2ccccc21 [Compound 7, (Z)-10-(3-(3-((1-methyl-1H-indol-3-yl)methylene)-2-oxoindolin-1-yl)propyl)acridin-9(10H)-one]",IC50,wt COX-2,22 µM
same,SI (IC50(COX-1)/IC50 (COX-2),wt COX-2,> 4.5
same,IC50,COX-1; [1],> 100 µM
"COc1cc(/C=C2\C(=O)N(CCCCCCn3c4ccccc4c(=O)c4ccccc43)c3ccccc32)cc(OC)c1O [Compound 8, (Z)-10-(6-(3-(4-Hydroxy-3,5-dimethoxybenzylidene)-2-oxoindolin-1-yl)hexyl)acridin-9(10H)-one]",IC50,wt COX-2,0.12 µM
same,SI (IC50(COX-1)/IC50 (COX-2),wt COX-2,400
same,IC50,COX-1; [1],48 µM
"COc1cc(/C=C2\C(=O)N(CCCCCn3c4ccccc4c(=O)c4ccccc43)c3ccccc32)cc(OC)c1O [Compound 9, (Z)-10-(5-(3-(4-Hydroxy-3,5-dimethoxybenzylidene)-2-oxoindolin-1-yl)pentyl)acridin-9(10H)-one]",IC50,wt COX-2,0.23 µM
same,SI (IC50(COX-1)/IC50 (COX-2),wt COX-2,250
same,IC50,COX-1; [1],52 µM
"COc1cc(/C=C2\C(=O)N(CCCn3c4ccccc4c(=O)c4ccccc43)c3ccccc32)cc(OC)c1O [Compound 10, (Z)-10-(3-(3-(4-Hydroxy-3,5-dimethoxybenzylidene)-2-oxoindolin-1-yl)propyl)acridin-9(10H)-one]",IC50,wt COX-2,12 µM
same,SI (IC50(COX-1)/IC50 (COX-2),wt COX-2,> 8
same,IC50,COX-1; [1],> 100 µM
"O=c1c2ccccc2n(CCCCCCBr)c2ccccc12 [Compound 13d, 10-(6-Bromohexyl)acridin-9(10H)-one]",IC50,wt COX-2,48.5 µM
same,SI (IC50(COX-1)/IC50 (COX-2),wt COX-2,> 2
same,decrease in fluorescence intensity (quenching) in the presence of COX-2,COX-2,Small decrease; also recorded: much less
same,IC50,COX-1; [1],> 100 µM
"O=Cc1cn(CCCCCCn2c3ccccc3c(=O)c3ccccc32)c2ccccc12 [Compound 15d, 1-(6-(9-Oxoacridin-10(9H)-yl)hexyl)-1H-indole-3-carbaldehyde]",IC50,wt COX-2,23.5 µM
same,SI (IC50(COX-1)/IC50 (COX-2),wt COX-2,> 4
same,decrease in fluorescence intensity (quenching) in the presence of COX-2,COX-2,Small decrease; also recorded: much less
same,IC50,COX-1,> 100 µM
